# Experimental data as given in patent publication US20230349922A1, “H2 Blockers Targeting Liver Macrophages for the Prevention and Treatment of Liver Disease and Cancer” (Université de Strasbourg, priority 2020, published 2023).
# Experiments:
# [1] = patients, after a 300 mg oral dose; cited from earlier work
# [2] = test system: prognostic liver signature (PLS); assay: cPLS model: reversal of the prognostic liver signature in HCV-infected Huh7.5.1dif cells; assay type: cell-based, human; settings: Huh7.5.1dif cells infected with HCV Jc1 for 7 days, treated 3 additional days; GSEA
# [3] = test system: primary human hepatocytes (PHH); assay: Cell viability of primary human hepatocytes in 3D culture; assay type: cell-based; settings: 4 days after nizatidine treatment, compared to DMSO
# Description: FIG. 9. Proof-of-concept for Therapeutic Impact of Nizatidine in Patient-Derived HCC Spheroids. (A) Absent effect on cell viability in PHH, assessed 4 days after nizatidine treatment in 3D culture. […] (B) Nizatidine decreases HCC cell viability in a 3D patient-derived tumorspheroid model. HCC spheroids were generated from patient HCC tissues with different etiologies. Cell viability was assessed 4 days after treatment by measuring ATP levels. […] The pictures show representative image of patient-derived tumorspheroids (magnification X40). NASH=non-alcoholic steatohepatitis; ALD=alcoholic liver disease. Source data are provided as a Source Data file.
# [4] = test system: tumor associated macrophages (TAMs); assay: IL6 expression in M1-polarized tumor associated macrophages from patient HCCs; assay type: cell-based, human; settings: patient-derived tumor macrophages
# Description: FIG. 5. Effect of Nizatidine and HRH2 KO on Cytokine Expression in a Cell Culture Model for M1 Macrophages. (A) Representative picture of differentiated macrophages. To generate macrophage-like cells (MO), THP-1 cells were treated with PMA for 24 hours. To generate M1-polarized THP-1 macrophages, THP-1 cells were treated with PMA plus LPS and IFNγ. M1-polarized THP-1 were treated with nizatidine for 48 hours. (B) Gene expression of different cytokines was measured by qRT-PCR. Results are expressed as mean+s.e.m from 3 independent experiments performed in triplicate. * denotes p<0.05; ** denotes p<0.01; *** denotes p<0.001. (C) Representative picture of M1 differentiated patient-derived Kupffer cells. To generate M1-polarized macrophages, patient Kupffer cells were treated with LPS and IFNγ. (D) Gene expression of different cytokines was measured by qRT-PCR. Results are expressed as mean+s.d. from one experiment performed in duplicate. (E) IL6 expression in M1-polarized tumor associated macrophages (TAMs) isolated from different patient HCCs and treated with nizatidine. Results are expressed as mean+/−SD from one experiment performed in triplicate or quadruplicate. […] KO efficacy was assessed at genetic level by T7 endonuclease assay. […] Right: Pro-inflammatory cytokines and markers expression were analyzed by qRT-PCR (mean+/−SD n=3, one representative experiment out of two is shown).
# [5] = test system: patient-derived HCC tumor spheroids; assay: Cell viability (ATP, CellTiter-Glo) of patient-derived HCC tumorspheroids; assay type: cell-based, human; settings: nizatidine 50 μM, 4 days, ATP levels, compared to DMSO; 6 patients
# Description: Patient-Derived HCC Tumor Spheroids. Tumorspheroids were generated from liver tissues from HCC patients undergoing surgical resection and dissociated using the Human Tumor Dissociation Kit. Total cell populations including epithelical (i.e., cancer cells/hepatocytes) and NPCs were used to generate multicellular tumorspheroids in Corning® 96-well Black/Clear Bottom Low Flange Ultra-Low Attachment Microplates (Corning). After 48 hours, HCC-derived spheroids were treated with nizatidine 50 μM, sorafenib 10 μM or DMSO vehicle control for 4 days. Fresh medium containing DMSO or drugs was added every day. Cell viability was assessed using CellTiter-Glo® (Luminescent Cell Viability Assay), according to manufacturer's instruction.
# [6] = test system: patient-derived Kupffer cells; assay: Cytokine expression by qRT-PCR in M1 differentiated patient-derived Kupffer cells; assay type: cell-based, human; settings: Kupffer cells isolated from patient tissues, LPS + IFNγ, nizatidine 30 μM 48 hours
# Description: Real-Time qRT-PCR. cDNAs were synthetized by reverse transcription using SuperScript III First-Strand Synthesis SuperMix (Life Technologies). Expression of […] IL6, TNFα and IL1β was analyzed by quantitative real-time PCR using TaqMan Gene Expression Assays (Thermo Fisher Scientific) on the CFX96 Touch Real-Time PCR Detection System PCR system (Bio-Rad). Expression of human CCL2 and TGF was analyzed using iTaq™ Universal SYBR® Green Supermix (Bio-Rad). The 2^−ΔCT method was used for relative quantification (Schmittgen and Livak, Nature Protoc., 2008, 3: 1101-1108) of mRNA with normalization to 18S. The 2^−ΔCT method was used for relative quantification (Schmittgen and Livak, Nature Protoc., 2008, 3: 1101-1108) of mRNA with normalization to GAPDH mRNA. Isolation and Treatment of Patient-Derived Kupffer Cells. Kupffer cells were isolated as previously described (Kegel et al., J. Vis. Exp., 2016, 109: e53069) from liver tissue of patients without history of chronic liver disease. Briefly, the non-parenchymal cell populations (NPCs) were purified by serial centrifugation followed by separation of Kupffer cells, exploiting fast attachment of primary macrophages to plastic within 20 minutes. Cells were cultured in RPMI 1640 Medium with GlutaMAX™-I supplement and HEPES and supplemented with 10% FBS and gentamycin (0.05 mg/mL). […]
smiles,measurement,setting,value
"CNC(=C[N+](=O)[O-])NCCSCc1csc(CN(C)C)n1 [Nizatidine, N-[2-[[[2-[(dimethylamino)methyl]-4-thizaolyl]methyl]thio]ethyl]-N′-methyl-2-nitro-1,1-ethene-diamine]",plasma concentrations,[1],2000 to 4000 nM
same,reversal of the poor prognosis status of the prognostic liver signature (PLS),[2],PLS-reversing compounds with highest statistical significance
same,PHH viability,[3],no effect
same,pro-inflammatory cytokine expression (IL6),[4],direct effect
same,tumor spheroid viability,[5],significant decrease of tumor spheroid viability in 4 out of 6 patients
same,pro-inflammatory cytokine expression,[6],direct effect
